For test [1], the target named is full-length SHP2 wild-type (SHP2-WT) (Homo sapiens (Human), UniProt Q06124). Description: DiFMUP fluorescence intensity phosphatase inhibition assay, SHP2-WT activated with IRS-1 peptide. The format is biochemical. The note with it: DiFMUP at Km (60 μM), IRS-1 peptide activated. From the text:
(§1) To test the synthesized compounds for their potential to inhibit SHP2 activity, a fluorescence intensity-based assay using 6,8-difluoro-4-methylumbelliferyl phosphate (DiFMUP) as the substrate was adapted for three recombinant SHP2 constructs: 1) the SHP2 catalytic domain (SHP2cat; residues 248-527), 2) the full-length SHP2-E76K oncogenic mutant, and 3) the full-length SHP2 wild-type (SHP2-WT). The recombinant SHP2 proteins were expressed and purified. A dually phosphorylated peptide derived from the insulin receptor substrate 1 (IRS-1) served as a surrogate binding protein and was used to activate SHP2-WT. […] Michaelis-Menten experiments to determine the DiFMUP Michaelis-Menten constant (Kmn) for each SHP2 construct were performed and yielded the following values: SHP2-WT, Km=60 μM; SHP2-E76K, Km=20 μM; SHP2cat, Km=20 μM. Relative maximum rates (Vmax) of the DiFMUP reactions were as follows: SHP2-WT, Vmax=871 AFU/min; SHP2-E76K, Vmax, =2730 AFU/min; SHP2cat, Vmax=2912 AFU/min. IC50 values for each compound were determined from initial rates in 10-point dose-response assays using DiFMUP at a concentration corresponding to its Km value for the respective SHP2 construct.
(§2) SHP2 inhibitors were tested at room temperature (RT) in a 384-well plate format standard phosphatase fluorescence intensity assay using DiFMUP (Invitrogen/Thermo Fisher Scientific, Carlsbad, CA) as a substrate and a total reaction volume of 25 μL. SHP2 inhibitors or vehicle (DMSO) were spotted in triplicate into a black Greiner FLUOTRAC™ 200 384-well microplate (#781076, Greiner) for a 10-point dose-response assay using an Echo®555 Liquid Handler (Labcyte, Inc., San Jose, CA). PTP working solutions were prepared at a 0.625 nM concentration (for a final concentration of 0.5 nM) in buffer containing 50 mM Bis-Tris pH 6.0, 50 mM NaCl, 5 mM DTT, and 0.01% Tween® 20. Prior to the assay, a dually phosphorylated insulin receptor substrate 1 (IRS-1) peptide [625 nM (500 nMfinal) (30)] was added to full-length WT SHP2 working solutions and incubated for 20 min. DiFMUP working solutions at 5× final concentration were prepared in 50 mM Bis-Tris pH 6.0, 50 mMNaCl, and 0.01% Tween 20. 20 μL of PTP working solution was dispensed into the microplate and incubated with inhibitor for 20 min at RT. […] The reaction was initiated by addition of 5 μL DiFMUP working solutions. Fluorescence intensity was measured in kinetic mode (every minute for 7 or 10 min) using a Tecan Spark® Multimode Microplate Reader (Tecan, Groedig, Austria) with an excitation wavelength of 360 nm and an emission wavelength of 460 nm. The initial rates were determined from the linear progression curves of the PTP reaction. The nonenzymatic hydrolysis of the substrate was corrected by using a control without addition of enzyme. IC50 values were calculated from the corrected initial rates by nonlinear regression using the program GraphPad Prism (GraphPad Software, Inc., San Diego, CA) Version 8. Dose-response inhibition assays of SHP2cat using the substrate OMFP were performed similarly as described above for DiFMUP. OMFP was used at a concentration corresponding to its Km value for SHP2cat (50 μM final). Fluorescence intensity was measured in kinetic mode (every minute for 10 min) using a Tecan Spark Multimode Microplate Reader with an excitation wavelength of 485 nm and an emission wavelength of 535 nm. Initial rates were determined and IC50 vales calculated as described above.

In test [2] the target is full-length SHP2-E76K oncogenic mutant (Homo sapiens (Human), UniProt Q06124, E76K). The test can be described thus: DiFMUP fluorescence intensity phosphatase inhibition assay, SHP2-E76K. The format is biochemical. The note with it: DiFMUP at Km (20 μM), 10-point dose-response; read-out: SHP2-E76K IC50.
full-length SHP2-E76K oncogenic mutant, sequence (Q06124 whole entry E76K): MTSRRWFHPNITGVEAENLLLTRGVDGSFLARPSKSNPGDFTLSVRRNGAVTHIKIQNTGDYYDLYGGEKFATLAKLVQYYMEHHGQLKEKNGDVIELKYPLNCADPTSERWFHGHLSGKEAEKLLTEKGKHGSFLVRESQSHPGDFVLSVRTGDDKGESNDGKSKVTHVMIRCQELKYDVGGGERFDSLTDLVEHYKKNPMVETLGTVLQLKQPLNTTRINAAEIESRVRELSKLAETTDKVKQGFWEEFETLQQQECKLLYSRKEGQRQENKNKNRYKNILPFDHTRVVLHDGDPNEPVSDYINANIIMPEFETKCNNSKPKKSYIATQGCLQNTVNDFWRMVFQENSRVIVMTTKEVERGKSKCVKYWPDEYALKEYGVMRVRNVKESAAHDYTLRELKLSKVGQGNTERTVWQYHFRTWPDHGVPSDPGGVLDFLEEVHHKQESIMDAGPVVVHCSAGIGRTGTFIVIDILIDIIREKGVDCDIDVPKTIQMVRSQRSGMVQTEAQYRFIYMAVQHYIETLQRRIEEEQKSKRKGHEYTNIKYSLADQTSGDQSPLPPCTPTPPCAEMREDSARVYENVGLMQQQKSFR
From the text: as §1, §2

One may read the IC50 as the concentration that gives 50% inhibition.

full-length SHP2 wild-type (SHP2-WT), sequence (Q06124 whole entry, other chains not shown, the tested form may be a part): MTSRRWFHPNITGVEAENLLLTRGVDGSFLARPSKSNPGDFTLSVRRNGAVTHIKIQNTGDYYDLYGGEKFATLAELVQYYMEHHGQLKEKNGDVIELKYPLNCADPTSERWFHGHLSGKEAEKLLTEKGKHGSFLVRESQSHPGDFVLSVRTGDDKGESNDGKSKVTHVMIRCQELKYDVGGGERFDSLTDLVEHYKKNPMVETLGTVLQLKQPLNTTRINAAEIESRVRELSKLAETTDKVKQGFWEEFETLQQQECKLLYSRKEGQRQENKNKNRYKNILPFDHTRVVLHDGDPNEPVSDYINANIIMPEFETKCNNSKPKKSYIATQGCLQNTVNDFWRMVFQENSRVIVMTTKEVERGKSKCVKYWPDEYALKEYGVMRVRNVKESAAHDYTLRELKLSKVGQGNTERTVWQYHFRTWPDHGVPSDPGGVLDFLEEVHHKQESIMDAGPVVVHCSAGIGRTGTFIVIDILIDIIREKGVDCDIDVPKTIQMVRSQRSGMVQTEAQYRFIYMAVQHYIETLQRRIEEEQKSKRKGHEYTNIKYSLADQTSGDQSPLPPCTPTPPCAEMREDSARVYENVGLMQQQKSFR

With `CC(C)NC(=O)c1cc(-c2ccc(/C=C3\Sc4ccccc4C3=O)o2)ccc1O` [#13, (Z)-2-Hydroxy-N-isopropyl-5-(5-((3-oxobenzo[b]thiophen-2(3H)-ylidene)methyl)furan-2-yl)benzamide], the figures for the IC50 in test [1] and in test [2] were 20 to 100 µM and 1 to 20 µM, respectively.

For the compound `O=C1CCCC/C1=C\c1ccc(-c2ccc(O)c(C(=O)O)c2)o1` [#14, 2-Hydroxy-5-(5-((2-oxocyclohexylidene)methyl)furan-2-yl)benzoic acid], the IC50 in test [1] and in test [2] was 20 to 100 µM throughout.

`O=C(Nc1ccccc1)c1cccc(-c2ccc(/C=C3\Sc4ccccc4C3=O)o2)c1` [#15, (Z)-3-(5-((3-Oxobenzo[b]thiophen-2(3H)-ylidene)methyl)furan-2-yl)-N-phenylbenzamide]: the IC50 in test [1] and in test [2] was 20 to 100 µM throughout.

Turning to `O=C(NCc1ccccc1)c1cccc(-c2ccc(/C=C3\Sc4ccccc4C3=O)o2)c1` [#16, (Z)—N-Benzyl-3-(5-((3-oxobenzo[b]thiophen-2(3H)-ylidene)methyl)furan-2-yl)benzamide], the IC50 was no less than 100 µM in test [1] and 20 to 100 µM in test [2].

`O=C1/C(=C/c2ccc(-c3ccc(O)cc3)o2)Sc2ccccc21` [#17, (Z)-2-((5-(4-Hydroxyphenyl)furan-2-yl)methylene)benzo[b]thiophen-3(2H)-one]: the concentration for half-maximal inhibition (IC50) was no less than 100 µM in test [1] and 20 to 100 µM in test [2].

Regarding `COc1ccc(-c2ccc(/C=C3\Sc4ccccc4C3=O)o2)cc1C(=O)Nc1ccccc1` [#18, (Z)-2-Methoxy-5-(5-((3-oxobenzo[b]thiophen-2(3H)-ylidene)methyl)furan-2-yl)-N-phenylbenzamide], the half-maximal inhibitory concentration (IC50) in test [1] and in test [2] was 20 to 100 µM in each case.

As to `O=C1/C(=C/c2ccc(-c3ccc(O)c(C(=O)N4CCNCC4)c3)o2)Sc2ccccc21` [#19, (Z)-2-((5-(4-Hydroxy-3-(piperazine-1-carbonyl)phenyl)furan-2-yl)methylene)benzo[b]thiophen-3(2H)-one], the IC50 in test [1] is no less than 100 µM; in test [2], 20 to 100 µM.

Take `O=C(Nc1ccccc1)c1cc(-c2ccco2)ccc1O` [#21, 5-(Furan-2-yl)-2-hydroxy-N-phenylbenzamide]: the IC50 in test [1] and in test [2] was no less than 100 µM in each case.

For `O=C(NCCO)c1cc(-c2ccc(/C=C3\Sc4ccccc4C3=O)o2)ccc1O` [#22, (Z)-2-Hydroxy-N-(2-hydroxyethyl)-5-(5-((3-oxobenzo[b]thiophen-2(3H)-ylidene)methyl)furan-2-yl)benzamide], the IC50 in test [1] and in test [2] was no less than 100 µM in each case.

As for `CN1CCN(C(=O)c2cc(-c3ccc(/C=C4\Sc5ccccc5C4=O)o3)ccc2O)CC1` [#23, (Z)-2-((5-(4-Hydroxy-3-(4-methylpiperazine-1-carbonyl)phenyl)furan-2-yl)methylene)benzo[b]thiophen-3(2H)-one], the IC50 in test [1] and in test [2] was no less than 100 µM each time.

Regarding `O=C(Nc1ccccc1)c1cc(-c2ccc(/C=C3\Sc4ccccc4C3=O)o2)ccc1F` [#24, (Z)-2-Fluoro-5-(5-((3-oxobenzo[b]thiophen-2(3H)-ylidene)methyl)furan-2-yl)-N-phenylbenzamide], the IC50 in test [1] and in test [2] was no less than 100 µM in each case.

For `O=C1/C(=C/c2ccc(-c3ccccc3)o2)Sc2ccccc21` [#25, (Z)-2-((5-phenylfuran-2-yl)methylene)benzo[b]thiophen-3(2H)-one], the IC50 in test [1] and in test [2] was no less than 100 µM throughout.

Regarding `CC(C)NC(=O)c1cc(-c2ccc(/C=C3\Oc4ccccc4C3=O)o2)ccc1O` [#26], the IC50 in test [1] and in test [2] was 1 to 20 µM each time.

For `C/C=C1\CC/C(=C\c2ccc(-c3ccc(O)c(C(=O)O)c3)o2)C1=O` [#27], the IC50 in test [1] and in test [2] was 1 to 20 µM throughout.

`O=C(O)c1ccc(-c2ccc(/C=C3\Sc4ccccc4C3=O)o2)cc1` [#28]: the concentration for half-maximal inhibition (IC50) in test [1] and in test [2] was 1 to 20 µM throughout.

Turning to `O=C(Nc1ccccc1)c1cc(F)cc(-c2ccc(/C=C3\Sc4ccccc4C3=O)o2)c1` [#29], the half-inhibitory concentration (IC50) was 20 to 100 µM in test [1] and 1 to 20 µM in test [2].
